In patent US11242327B2, “Analgesic compounds” (RECURIUM IP HOLDINGS, LLC, priority 2017, dated 2022):
Where a name gives a salt, the structure may show the parent alone. Read-outs that look alike come from different tables or passages of the source.

Legend:
Type in all cases: in vivo
[1] = system: male Sprague-Dawley rats; assay: UVB Inflammatory Pain Test (thermal hyperalgesia); details: rat, oral; for paw withdrawal latency, 1 h: 1 h after dosing; for paw withdrawal latency, 2 h: 2 h after dosing; for paw withdrawal latency, 4 h: 4 h after dosing
Experimental: UVB irradiation to the surface of the hind paw was used to induce cutaneous inflammatory pain in non-fasted male Sprague-Dawley rats weighing 175-300 g. On Day −3, animals were restrained and the plantar surface of the left hind paw was exposed to 350 mJoules/cm^2 of UVB irradiation using a narrow band UVB light source (Daavlin®, Bryan, Ohio). Following UVB irradiation, animals were returned to their home cage. Thermal hyperalgesia was assessed prior to dosing and approximately 1, 2, and 4 hours after dosing on Day 0 using a radiant heat plantar test apparatus (IITC Life Sciences©; Woodland Hills, Calif.). Animals were placed in individual acrylic chambers on a glass platform warmed to 30±2° C. and allowed to acclimate to their surroundings for a minimum of 15 minutes before testing. The stimulus was presented to the plantar surface and the timer was activated. The stimulus intensity was set such that pre-injury paw withdrawal latencies were approximately 12-18 seconds. Paw withdrawal latency values were recorded at the first observed nocifensive behavior (paw withdrawal, flinching, biting and/or licking). Three paw withdrawal latencies were measured for each hind paw per time point. The mean of the 3 values was taken as the paw withdrawal latency for that time point. A maximum cutoff latency of 30 seconds was used to prevent injury to the animal. The mean and standard error of the mean (SEM) were determined for each paw for each treatment group at each time point. Test compounds were administered orally at concentrations of 3, 10, 30 or 100 mg/kg; celecoxib was administered orally at a concentration of 30 mg/kg; and acetaminophen was administered orally at a concentration of 300 mg/kg. The control group received the vehicle (sterile water). In Table 4, ‘A’ designates >8 seconds of paw withdrawal latency, ‘B’ designates >6 and <8 seconds of paw withdrawal latency, and ‘C’ designates <6 seconds of paw withdrawal latency.
The results provided in Table 4 are for oral administration in rats. […] Furthermore, while acetaminophen was dosed at 300 mg/kg, compounds of Formulae (Ie), (Ih) and (Ik), or a pharmaceutically acceptable salt of any of the foregoing, were dosed at 3 mg/kg, 10 mg/kg and 100 mg/kg.

[2] = system: male Sprague-Dawley rats; assay: Formalin Paw Test, rat, oral; details: 30 mg/kg; for Early Phase, seconds of paw licking: early/acute phase (0-10 minutes); for Late Phase, seconds of paw licking: late/tonic phase (10-35 minutes)
Experimental: One test compound or the vehicle was administered to each rat or mouse in each test group (8 rats or mice per group). Non-fasted male Sprague-Dawley rats weighing 200-225 g or non-fasted male ICR mice weighing 23±3 g were used. […] Responses were measured every 5 minutes after the formalin injection for 35 minutes. The results in Table 2 are for oral administration in rat and the results in Table 3 are for intraperitoneal administration in mouse. In Tables 2 and 3, 'A' designates <70 seconds of paw licking, 'B' designates >70 and <165 seconds of paw licking, and 'C' designates >165 seconds of paw licking.

[3] = Bioavailability Test (rat pharmacokinetics); details: for F: PO 30 mg/kg vs IV 3 mg/kg; for Vd: read-out: Vdss
Experimental: Oral bioavailability of compounds of Formulae (Ie), (Ih), (Ik), and (Ir), or a pharmaceutically acceptable salt of any of the foregoing, were evaluated in fasted male Sprague-Dawley (SD) rats weighing 200-225g. Compounds were dosed at 3 mg/kg (IV) and 30 mg/kg (PO). Unless otherwise noted, compounds were dissolved in 0.9% saline for IV dosing and 100% sterile water for PO dosing. Pharmacokinetic parameters were determined using Phoenix WinNonlin (v7.0). […]

[4] = system: male Sprague-Dawley rats; assay: Spinal Nerve Ligation (SNL) Neuropathic Pain Test; details: rat, oral, 100 mg/kg
Experimental: Neuropathy was induced in non-fasted male Sprague-Dawley rats weighing 75-100 g by surgically ligating the 4th and 5th lumbar spinal nerves (L4 and L5), a procedure also known as spinal nerve ligation (SNL). Animals were placed in individual acrylic chambers on a metal mesh surface and allowed to acclimate to their surroundings for a minimum of 15 minutes before testing. Mechanical sensitivity was assessed using 8 Semmes-Weinstein filaments (Stoelting©; Wood Dale, Ill., USA) with varying stiffness (0.4, 0.6, 1.0, 2.0, 4.0, 6.0, 8.0, and 15 g) according to an up-down method to determine 50% response thresholds. Each filament was presented perpendicular to the plantar surface with sufficient force to cause slight buckling against the paw and held for approximately 6 seconds or until a positive response is noted (paw sharply withdrawn). Testing was initiated with the 2.0 g filament. In the absence of a paw withdrawal response, the next stronger stimulus was presented. In the event of paw withdrawal, the next weaker stimulus was used. This process was repeated until 4 responses after the initial change in response (no response to positive response or positive response to no response) were obtained. […] The 50% response threshold was calculated using the formula: 50% response threshold (g)=(10^(Xf+kδ))/10,000;
Xf=value (in log units) of the final von Frey filament used;
k=tabular value for the pattern of positive/negative responses (See Chaplan, et al. “Quantitative Assessment of Tactile Allodynia in the Rat Paw” J. Neurosci. Meth. 53.1 (1994): 56-63);
[…] =mean difference (in log units) between stimuli.
The mean and standard error of the mean (SEM) were determined for each paw for each treatment group at each time point. Thresholds were determined prior to surgery and again 14 days later. After 14 days, test or control compounds were administered and thresholds were again determined 1, 2, and 4 hours after compound administration. Median response thresholds in compound-treated animals were compared to those in vehicle treated animals to determine anti-allodynic efficacy of test and control compounds. Test compounds were administered orally at concentrations of 10, 30 or 100 mg/kg and gabapentin was administered orally at a concentration of 100 mg/kg. The control group received the vehicle (sterile water). In Table 7, ‘A’ designates a 50% threshold of ≥8 grams, ‘B’ designates a 50% threshold of ≥6 and <8 grams, and ‘C’ designates a 50% threshold of <6 grams.
The results provided in Table 7 are for oral administration in rats.

[5] = system: male Sprague-Dawley rats; assay: Post-Incisional (Brennan) Pain Test; details: rat, subcutaneously, 10 mg/kg
Experimental: Incisional pain was induced in non-fasted male Sprague-Dawley rats weighing 180-300 g by making a 1-cm plantar incision in the left hind paw and is designed to mimic pain and sensitivity similar to what is reported by patients after surgery. Dosing occurred at the time of incision and spontaneous pain was measured 4 and 24 hours post-dosing using a cumulative pain score. The unrestrained animals were placed on a metal mesh platform and allowed to acclimate for about 15 min/ Each animal was closely observed during a 1-min period repeated every 5 min for 1 h (12 times total). Depending on the position in which the foot was found during the scoring period, a score of 0, 1, or 2 was given. Full weight bearing of the foot (score=0) was present if the skin on the plantar surface of the paw wound was blanched or distorted by the mesh. If the foot was completely off the mesh, or one or more instances of licking or flinching was observed, a score of 2 was recorded and the licking or flinching was noted but not counted. If the plantar surface of the paw touched the mesh without blanching or distorting, a score of 1 was given. The sum of the 12 scores obtained during the 1 h session was calculated (maximum score=24) for each animal. Observations were made during hours 4 and 24. Test articles were administered orally at concentrations of 10, 30 or 100 mg/kg and ketoprofen was administered subcutaneously at a concentration of 10 mg/kg. The control group received the vehicle (sterile water). In Table 6, ‘A’ designates a cumulative pain score of ≤11, ‘B’ designates >11 and ≤16, and ‘C’ designates >16.
The results provided in Table 6 are for oral administration in rats.

[6] = male, Sprague-Dawley, in vivo, IV 3 mg/kg, 0.9% saline
[7] = male, Sprague-Dawley, in vivo, PO 30 mg/kg, sterile water
[8] = male, Sprague-Dawley, in vivo, IV 3 mg/kg, DMSO, PEG400, and 30% HPβCD (5/20/75)
[9] = male, Sprague-Dawley, in vivo, PO 30 mg/kg, PEG400, PVP, Tween 80, 0.5% CMC in water (9/0.5/0.5/90)

Structure (SMILES) | paw withdrawal latency, 1 h ([1]; 3 mg/kg) | paw withdrawal latency, 2 h ([1]; 3 mg/kg) | paw withdrawal latency, 4 h ([1]; 3 mg/kg) | paw withdrawal latency, 1 h ([1]; 10 mg/kg) | paw withdrawal latency, 2 h ([1]; 10 mg/kg) | paw withdrawal latency, 4 h ([1]; 10 mg/kg) | paw withdrawal latency, 1 h ([1]; 30 mg/kg) | paw withdrawal latency, 2 h ([1]; 30 mg/kg) | paw withdrawal latency, 4 h ([1]; 30 mg/kg) | paw withdrawal latency, 1 h ([1]; 100 mg/kg) | paw withdrawal latency, 2 h ([1]; 100 mg/kg) | paw withdrawal latency, 4 h ([1]; 100 mg/kg) | Early Phase, seconds of paw licking [2] | Late Phase, seconds of paw licking [2] | F [3] | AUC(0-inf) [3, 6] | clearance [3, 6] | half-life [3, 6] | Vd [3, 6] | AUC(0-inf) [3, 7] | further results
Cl.O=C(O)CNC12CC(C(F)(F)F)(C1)C2 [Compound 6, (3-(trifluoromethyl)bicyclo[1.1.1]pentan-1-yl)glycine hydrochloride] | C (<6 seconds of paw withdrawal latency) | B (>6 and <8 seconds of paw withdrawal latency) | A (>8 seconds of paw withdrawal latency) | B (>6 and <8 seconds of paw withdrawal latency) | B (>6 and <8 seconds of paw withdrawal latency) | B (>6 and <8 seconds of paw withdrawal latency) | A (>8 seconds of paw withdrawal latency) | B (>6 and <8 seconds of paw withdrawal latency) | B (>6 and <8 seconds of paw withdrawal latency) | A (>8 seconds of paw withdrawal latency) | A (>8 seconds of paw withdrawal latency) | B (>6 and <8 seconds of paw withdrawal latency) | A (<70 seconds of paw licking) | B (>70 and <165 seconds of paw licking) | 134% | 1.8 µM·h | 121 mL/min/kg | 9 min | 0.79 L/kg | 29 µM·h | Cmax [3, 7]: 32 µM; Tmax [3, 7]: 13.2 min; half-life [3, 7]: 96 min
O=C(CO)NC12CC(C(F)(F)F)(C1)C2 [Compound 7, 2-Hydroxy-N-(3-(trifluoromethyl)bicyclo[1.1.1]pentan-1-yl)acetamide] | B (>6 and <8 seconds of paw withdrawal latency) | B (>6 and <8 seconds of paw withdrawal latency) | B (>6 and <8 seconds of paw withdrawal latency) | C (<6 seconds of paw withdrawal latency) | C (<6 seconds of paw withdrawal latency) | B (>6 and <8 seconds of paw withdrawal latency) | B (>6 and <8 seconds of paw withdrawal latency) | B (>6 and <8 seconds of paw withdrawal latency) | B (>6 and <8 seconds of paw withdrawal latency) | C (<6 seconds of paw withdrawal latency) | C (<6 seconds of paw withdrawal latency) | B (>6 and <8 seconds of paw withdrawal latency) | A (<70 seconds of paw licking) | B (>70 and <165 seconds of paw licking) | 138% | 9 µM·h | 27 mL/min/kg | 138 min | 2.5 L/kg | 119 µM·h | Cmax [3, 7]: 67 µM; Tmax [3, 7]: 11.4 min; half-life [3, 7]: 150 min
CC(F)(F)c1csc(C23CC(N)(C2)C3)n1 [Compound 25, 3-(4-(1,1-difluoroethyl)thiazol-2-yl)bicyclo[1.1.1]pentan-1-amine hydrochloride] |  |  |  |  |  |  |  |  |  |  |  |  | A (<70 seconds of paw licking) | A (<70 seconds of paw licking) |  |  |  |  |  |  | F ([3]; vehicles of footnote a): 115%; AUC(0-inf) [3, 8]: 13 µM·h; clearance [3, 8]: 17 mL/min/kg; half-life [3, 8]: 222 min; Vd [3, 8]: 3.2 L/kg; Cmax [3, 9]: 24 µM; Tmax [3, 9]: 72 min; AUC(0-t) ([3]; male, Sprague-Dawley, in vivo, PO 30 mg/kg, PEG400, PVP, Tween 80, 0.5% CMC in water (9/0.5/0.5/90), read-out: AUC24h): 144 µM·h
NCC1(CC(=O)O)CCCCC1 [Gabapentin, reference compound] |  |  |  |  |  |  |  |  |  |  |  |  |  |  |  |  |  |  |  |  | 50% response threshold, 1 h ([4]; 1 h after administration): B (a 50% threshold of ≥6 and <8 grams); 50% response threshold, 2 h ([4]; 2 h after administration): A (a 50% threshold of ≥8 grams); 50% response threshold, 4 h ([4]; 4 h after administration): A (a 50% threshold of ≥8 grams)
CC(C(=O)O)c1cccc(C(=O)c2ccccc2)c1 (stereo not shown) [Ketoprofen, reference compound] |  |  |  |  |  |  |  |  |  |  |  |  |  |  |  |  |  |  |  |  | cumulative pain score, 4 h ([5]; 4 h post-dosing): B (>11 and ≤16); cumulative pain score, 24 h ([5]; 24 h post-dosing): A (a cumulative pain score of ≤11)
